The source of these data is patent publication US20140249097A1, “Inhibition of HIF-1 activation for Anti-Tumor and Anti-Inflammatory responses” (priority 2010, published 2014).

Where a name gives a salt, the structure may show the parent alone.

Test [1] deals with tumor-activated macrophages. The test can be described thus: CD68 staining of tumor-activated macrophages in orthotopic 4T1ODD-luc tumors. Format: in vivo, mice. To be noted: doxorubicin-treated vs saline-treated tumors. On the procedure:
(§1) Five mice from a doxorubicin-treated group or a control group that received saline were sacrificed on days 0, 1, 4, 7 and 16. The hypoxia marker pimonidazole (70 mg/kg i.p., NPI, Raleigh, N.C., United States of America) and the perfusion marker dye Hoechst 33342 (1 mg/mouse i.v., Sigma-Aldrich) were administered as previously described (Cao et al., 2005). Upon excision, tumors were snap-frozen in liquid nitrogen, stored at −80° C., and cut into 10 μm frozen sections. HIF-1α fluorescent staining was performed with anti-HIF-1α antibody (Novus). Direct pimonidazole labeling was performed using Hypoxyprobe (mouse monoclonal IgG1, NPI, Raleigh, N.C., United States of America) and Zenon Alexa Fluor 555 mouse IgG labeling kit (Invitrogen). Entire tumor sections were imaged by scanning fluorescent microscopy. Individual scanned images were then reconstructed into one composite image of the entire section by Metamorph. […] Eight random fields (10×) per frozen section were analyzed to determine the mean tumor vascular fraction as the percentage of vessel area in total tumor area in each field. Cell proliferation was determined by immunostaining with a rabbit polyclonal anti-Ki67 antibody (ab15580, 1:100 dilution, Abcam, Cambridge, Massachusettes, United States of America) and an Alexa 594-conjugated goat anti-rabbit IgG antibody (1:300 dilution, Invitrogen). […]

The subject of test [2] is HIF-1α. The test can be described thus: Bioluminescent imaging of orthotopic 4T1ODD-luc tumors in nude mice. The test is classed as in vivo. On the procedure:
(§2) HIF-1α ODD-luciferase reporter activity was detected and quantified by the Xenogen IVIS bioluminescence imaging system (Xenogen Corporation, Alameda, Calif., United States of America) as previously described (Li et al., 2007). For in vitro imaging of cultured cells, 1×10^5 4 T1ODD-luc cells per well of 12-well plates were cultured with 2 ml culture medium for 24 hours. Then the cells were treated with doxorubicin hydrochloride (0.1, 1, or 10 μg/ml, Bedford Laboratories, Bedford, Ohio, United States of America) or an equal volume of control vehicle for 3 days under normoxic conditions (21% O2, 5% CO2). […] The activity of HIF-1α luciferase reporter was quantified daily. In animal studies, the bioluminescence of each tumor was detected on day 0 (before doxorubicin treatment) and on post-treatment days 1-7, 10, 13, and 16. During each imaging session mice were anesthetized with inhaled isoflurane and imaged 10 minutes after intraperitoneal (i.p.) injection of luciferin (150 mg/kg). Tumor bioluminescence intensity was normalized to the tumor volume at each time point.
5×10^6 4 T1ODD-luc tumor cells in 200 μl PBS were injected orthotopically in the right thoracic mammary fat pad of female NCr/nu nude mice (Moeller et al., 2004). Tumor volumes were calculated as follows: volume=(length×width^2×π)/6. When tumor size reached 7 mm in diameter, animals were randomized into two groups: the control mice were injected with 100 μl saline and the treated mice were injected once with the maximal tolerated dose (MTD) of doxorubicin (10 mg/kg) via tail vein (Vanhoefer et al., 1997). Tumor volume and luciferase reporter activity in vivo were measured on days 0, 1-7, 10, 13 and 16.

The next test relates to nitric oxide. The test can be described thus: Flow cytometry of intracellular nitric oxide (DAF-FM) in 4T1ODD-luc cells. Format: cell-based, mouse. The note with it: 1 μg/ml and 5 μg/ml doxorubicin, 48 hours, vs control. Here is the method: To detect intracellular nitric oxide levels, 1×10^6 4 T1ODD-luc cells were plated per 10-cm cell culture dish with 8 ml of cell culture medium. Doxorubicin (1 μg/ml and 5 μg/ml) or an equal volume of control solvent was added into the cell culture medium the next day and treatment continued for 48 hours. […] Equal amounts of solvent were added for the control group. To quantify intracellular nitric oxide, a single cell suspension was made after trypsinization. 2 ml of 5 uM nitric oxide-specific probe DAF-FM diacetate (4-amino-5-methylamino-2′,7′-difluorofluorescein diacetate) (Invitrogen) were incubated with each cell sample at room temperature in darkness for 30 minutes. The cells were washed with PBS and centrifuged to remove the excess DAF-FM diacetate probe. The cells were resuspended into 500 ul of phenol-free DMEM and incubated for another 20 minutes for complete intracellular deacetylation of the probe. The mean fluorescence intensity of the deacetylated DAF-FM reacted with nitric oxide was quantified by FACSCalibur flow cytometer in FITC channel (Becton Dickinson, Franklin Lakes, N.J., United States of America).
(In general: Flow cytometry measures light scatter and fluorescence of single cells or particles in a stream.)

In the next test the test system is hypoxic tumor fraction. The test can be described thus: Pimonidazole staining of tumor hypoxia in orthotopic 4T1ODD-luc tumors. The test is classed as in vivo, mice. The note with it: doxorubicin-treated vs control tumors. On the procedure:
as §1

The subject of the next test is STAT1. The test can be described thus: Western blotting of STAT1 and phospho-STAT1 in 4T1ODD-luc cells. The test is classed as cell-based, mouse. The note with it: doxorubicin 1 μg/ml. Here is the method:
(§3) Cell nuclear proteins were extracted using the NucBuster protein extraction kit (Novagen, Gibbstown, N.J., United States of America). Total cell lysates or cell nuclear extractions were quantified using a protein assay reagent (Bio-Rad). Equal amounts of protein sample were separated by Bis-HCl gel (Bio-Rad) and transferred to a […] Immun-Blot PVDF membrane (Bio-Rad).
(In general: In western blotting, separated proteins are transferred to a membrane and probed.)

The subject of test [3] is HIF-1α. The test can be described thus: HIF-1α ODD-luciferase reporter in normoxic 4T1ODD-luc cells. The test is classed as cell-based, mouse. On the procedure:
as §2
(A reporter such as luciferase makes a cellular process visible.)

The subject of a further test is VEGF. The test can be described thus: Mouse VEGF ELISA of 4T1ODD-luc conditioned medium. Format: cell-based. The note with it: normoxic, doxorubicin 0.1, 1, and 10 μg/ml. On the procedure:
1×10^5 4 T1ODD-luc cells per well of 12-well plate were cultured with 1 ml cell culture medium overnight. The cells were treated with 0.1, 1, or 10 μg/ml of doxorubicin or without doxorubicin for 24, 48, and 72 hours. Secreted mouse VEGF in the conditioned medium at each time point was quantified by mouse VEGF ELISA kit (R & D Systems, Minneapolis, Minn., United States of America) and normalized to the number of living cells.

In test [4] the test system is HIF-1α. The test can be described thus: Western blotting of HIF-1α in 4T1ODD-luc cells. The test is classed as cell-based, mouse. The note with it: normoxic, total cell lysate and nuclear extraction, 48 hours post-treatment. On the procedure: as §3
The test system of test [5] is iNOS. The test can be described thus: Western blotting of iNOS in 4T1ODD-luc cells. The test is classed as cell-based, mouse. Here is the method:
as §3

The subject of test [6] is HIF-1α. The test can be described thus: Immunohistochemical staining of HIF-1α in orthotopic 4T1ODD-luc tumors. The test is classed as in vivo, mice. The note with it: MTD doxorubicin vs saline, post-treatment days 1, 4, and 7. On the procedure: as §1
In test [7] the test system is iNOS. The test can be described thus: Real-time PCR of iNOS mRNA in 4T1ODD-luc cells. Format: cell-based, mouse. To be noted: doxorubicin vs control treatment. Here is the method: Total RNA was prepared using the miRVana extraction kit (Applied Biosystems, Austin, Tex., United States of America). 1 μg of total RNA was reverse transcribed into cDNA using the iScript cDNA synthesis kit (BioRad, Hercules, Calif., United States of America). Real-time PCR was performed on an ABI7900HT Fast Real-Time PCR System using Power SYBRGreen PCR Mix (Applied Biosystems). PCR products were verified by melting curves. The threshold cycle (CT) values for each gene were normalized to expression levels of β-actin. The primers used were as follows: mouse iNOS, forward 5′-[…]-3′ (SEQ ID NO: 22); reverse 5′-[…]-3′ (SEQ ID NO: 23); the same β-actin primers were used for both human and mouse cell lines, forward 5′-[…]-3′ (SEQ ID NO: 24); and reverse 5′-[…]-3′ (SEQ ID NO: 25).

A further test relates to tumor vasculature. The test can be described thus: Fluorescent staining of tumor vasculature in orthotopic 4T1ODD-luc tumors. The test is classed as in vivo, mice. On the procedure: Five mice from a doxorubicin-treated group or a control group that received saline were sacrificed on days 0, 1, 4, 7 and 16. The hypoxia marker pimonidazole (70 mg/kg i.p., NPI, Raleigh, N.C., United States of America) and the perfusion marker dye Hoechst 33342 (1 mg/mouse i.v., Sigma-Aldrich) were administered as previously described (Cao et al., 2005). Upon excision, tumors were snap-frozen in liquid nitrogen, stored at −80° C., and cut into 10 μm frozen sections. HIF-1α fluorescent staining was performed with anti-HIF-1α antibody (Novus). Direct pimonidazole labeling was performed using Hypoxyprobe (mouse monoclonal IgG1, NPI, Raleigh, N.C., United States of America) and Zenon Alexa Fluor 555 mouse IgG labeling kit (Invitrogen). Entire tumor sections were imaged by scanning fluorescent microscopy. Individual scanned images were then reconstructed into one composite image of the entire section by Metamorph. Tumor vasculature was stained by fluorescein-labeled Griffonia simplicifolia lectin I (isolectin B4) (1:200 dilution, Vector Laboratories, Burlingame, Calif., United States of America) as previously described (Cao et al., 2007). Eight random fields (10×) per frozen section were analyzed to determine the mean tumor vascular fraction as the percentage of vessel area in total tumor area in each field. Cell proliferation was determined by immunostaining with a rabbit polyclonal anti-Ki67 antibody (ab15580, 1:100 dilution, Abcam, Cambridge, Massachusettes, United States of America) and an Alexa 594-conjugated goat anti-rabbit IgG antibody (1:300 dilution, Invitrogen). Tumor activated macrophages were stained with rat anti-mouse CD68 antibody (1:100 dilution, Serotec, Raleigh, N.C., United States of America) and an Alexa 488-conjugated anti-rat IgG antibody (1:200 dilution, Invitrogen).

Another test relates to perfused tumor fraction. The test can be described thus: Hoechst 33342 labeling of tumor perfusion in orthotopic 4T1ODD-luc tumors. The test is classed as in vivo, mice. To be noted: doxorubicin-treated vs control tumors. On the procedure:
as §1

Test [8] concerns HIF-1α. The test can be described thus: Western blotting of HIF-1α in MCF-7 cells. Format: cell-based, human. To be noted: normoxic MCF-7 cells. On the procedure:
as §3

Consider `COc1cccc2c1C(=O)c1c(O)c3c(c(O)c1C2=O)C[C@@](O)(C(=O)CO)C[C@@H]3O[C@H]1C[C@H](N)[C@H](O)[C@H](C)O1` [doxorubicin, doxorubicin hydrochloride], for which the “fraction of tumor-activated macrophages (CD68)” value in test [1] is “no significant difference”. Further, the “HIF-1α reporter activity in tumors on day 16” value in the test on HIF-1α [2] (doxorubicin 10 mg/kg i.v. once vs saline, day 16) is “fell to a level similar to that in the control tumors”. In addition, in the test on HIF-1α [2] (doxorubicin 10 mg/kg i.v. once vs saline, from 3 days post-treatment), the “HIF-1α reporter activity in tumors” value is “significantly elevated the HIF-1α reporter activity”. Further, the “peak in HIF-1 activation after doxorubicin treatment” value in the test with HIF-1α [2] (in vivo) was in the range of 3 to 5 days. The “temporal course of doxorubicin-induced normoxic HIF-1α accumulation” value with HIF-1α [2] (mouse, in vivo) is reported as 3-5 days post-treatment. Besides, the “intracellular NO levels” value in the test with nitric oxide was “increased intracellular NO levels”. Further, in the test on hypoxic tumor fraction, the “hypoxic tumor fraction (pimonidazole staining)” value is recorded as “no significant difference”. The STAT1 expression entry in the test on STAT1 is “upregulated the expression of STAT1”. Besides, the “STAT1 phosphorylation (Tyr701 and Ser727)” value with STAT1 is given as “promoted the activation of STAT1”. In addition, the “HIF-1α reporter activity, comparison of concentrations” value in the test with HIF-1α [3] (1 μg/ml doxorubicin) is “most potent upregulation”. Also, the HIF-1α reporter activity entry with HIF-1α [3] (doxorubicin 0.1, 1, or 10 μg/ml, 48 hours post-treatment) is “significant increase in HIF-1α reporter activity”. Also, the “secreted VEGF level” value in the test with VEGF was “significantly elevated the secreted VEGF level”. Also, the HIF-1α protein expression entry in the test on HIF-1α [4] is “enhanced”. In addition, the iNOS expression entry was “stimulated iNOS expression” with iNOS [5] (doxorubicin 1 μg/ml, normoxic conditions); “initial decrease in iNOS expression” in the test with iNOS [5] (doxorubicin alone, first 24 hours post-treatment); “increase in iNOS expression” with iNOS [5] (doxorubicin, 48 hours post-treatment). The “tumor HIF-1α positive fraction” value in the test with HIF-1α [6] is given as “significantly increased the HIF-1α fraction”. In addition, the “iNOS mRNA level” value in the test with iNOS [7] is on record as “significantly enhanced iNOS transcription”. Further, the “relative tumor vascular fraction” value in the test on tumor vasculature (doxorubicin vs control, first 24 hours) is given as “significant decrease in tumor vascular fraction”; with tumor vasculature (doxorubicin vs saline, day 16), “still significantly higher compared to the saline-treated tumors”. For the same molecule, the “tumor vessels by fluorescent staining” value with tumor vasculature (doxorubicin vs saline, day 4 post-treatment) is “more tumor vessels”. Besides, the “mean relative tumor vascular fraction” value in the test with tumor vasculature (doxorubicin-treated tumors, post-treatment day 4 (peak)) is “even higher than before chemotherapy treatment”. The “perfused tumor fraction (Hoechst 33342 labeling)” value in the test on perfused tumor fraction is reported as “no significant difference”. The HIF-1α protein result in the test on HIF-1α [8] is listed as “led to normoxic HIF-1α accumulation”.
